Experimental data reported in ChEMBL document CHEMBL1201862, “PubChem BioAssay data set” (2004).
Blank lines part the entries; values can stand above or below the compound they belong to. The source made the active and inactive calls.

How the values were obtained:
[1] = target: T1, Calpain-2 catalytic subunit (Sus scrofa, UniProt P43367); experiment: m-calpain protease blockers, concentration series – biochemical, fluorogenic peptide substrate, dose response (AID 1420); format: functional
T1 sequence (P43367 whole entry): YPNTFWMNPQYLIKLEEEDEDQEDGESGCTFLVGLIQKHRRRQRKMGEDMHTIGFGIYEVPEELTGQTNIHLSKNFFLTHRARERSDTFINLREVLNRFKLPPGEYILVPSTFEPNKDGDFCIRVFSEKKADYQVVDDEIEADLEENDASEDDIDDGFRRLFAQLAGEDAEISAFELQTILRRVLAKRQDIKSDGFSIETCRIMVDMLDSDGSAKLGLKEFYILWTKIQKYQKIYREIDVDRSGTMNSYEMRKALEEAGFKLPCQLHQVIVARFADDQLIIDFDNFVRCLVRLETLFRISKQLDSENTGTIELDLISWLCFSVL

Aminopeptidase N = target: T2, Aminopeptidase N (Plasmodium falciparum FcB1/Columbia, UniProt O96935); experiment: malaria alanyl aminopeptidase activity blockers – biochemical, fluorogenic H-Leu-NHMec substrate, 1536-well (AID 1445); design: species or system Plasmodium falciparum 3D7, 3D7
T2 sequence (O96935 whole entry): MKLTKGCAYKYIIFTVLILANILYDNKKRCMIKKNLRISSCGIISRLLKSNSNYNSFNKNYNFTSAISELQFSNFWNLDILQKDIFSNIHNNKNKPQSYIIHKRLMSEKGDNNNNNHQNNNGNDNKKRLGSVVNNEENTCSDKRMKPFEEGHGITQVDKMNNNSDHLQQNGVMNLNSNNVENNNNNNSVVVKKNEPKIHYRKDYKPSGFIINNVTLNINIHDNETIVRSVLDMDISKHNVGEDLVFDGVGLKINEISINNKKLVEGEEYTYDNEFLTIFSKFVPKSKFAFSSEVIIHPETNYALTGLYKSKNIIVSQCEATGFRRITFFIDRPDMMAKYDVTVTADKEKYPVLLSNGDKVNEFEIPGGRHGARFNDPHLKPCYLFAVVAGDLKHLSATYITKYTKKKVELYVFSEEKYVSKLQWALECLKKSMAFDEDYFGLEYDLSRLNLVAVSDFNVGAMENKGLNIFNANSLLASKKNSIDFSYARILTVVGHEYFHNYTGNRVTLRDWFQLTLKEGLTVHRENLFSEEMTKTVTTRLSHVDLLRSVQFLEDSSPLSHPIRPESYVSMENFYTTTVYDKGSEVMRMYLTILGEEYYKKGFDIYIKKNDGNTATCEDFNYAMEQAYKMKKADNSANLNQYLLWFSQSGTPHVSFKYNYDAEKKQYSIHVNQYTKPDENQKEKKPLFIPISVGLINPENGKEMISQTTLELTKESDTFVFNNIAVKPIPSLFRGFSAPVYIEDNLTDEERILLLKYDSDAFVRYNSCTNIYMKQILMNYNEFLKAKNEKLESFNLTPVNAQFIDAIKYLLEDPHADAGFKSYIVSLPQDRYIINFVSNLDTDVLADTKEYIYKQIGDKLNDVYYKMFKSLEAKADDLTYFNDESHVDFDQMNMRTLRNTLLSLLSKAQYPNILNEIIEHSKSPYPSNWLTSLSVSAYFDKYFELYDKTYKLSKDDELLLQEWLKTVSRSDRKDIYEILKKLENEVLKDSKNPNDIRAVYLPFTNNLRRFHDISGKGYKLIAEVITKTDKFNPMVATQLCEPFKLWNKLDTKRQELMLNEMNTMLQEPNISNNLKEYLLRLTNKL

[2] = HIV-1 Vif–A3G interaction blockers – biochemical, TR-FRET, GST-Vif 1-94, biotin-A3G peptide, dose response retest, primary screen (AID 1117319); format: functional;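 also: TR-FRET signal of purified GST-Vif binding a biotinylated A3G peptide; inhibitors lower the FRET signal by blocking Vif and A3G binding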
[3] = target: 26S proteasome non-ATPase regulatory subunit 14 (Homo sapiens, UniProt O00487); experiment: inhibition of proteasome subunit RPN11 – biochemical, fluorescence polarization, uHTS hits, confirmation (AID 602368); format: functional
[4] = target: 72 kDa type IV collagenase (Homo sapiens, UniProt P08253); experiment: Dose Response validation of uHTS RPN11 inhibitor hits using a MMP-2 Fluorescence assay.; format: functional
Prothrombin = Prothrombin (Bos taurus, UniProt P00735); experiment: thrombin protease inhibitors – biochemical, fluorescence polarization, uHTS hits, dose response (AID 602369); format: functional
[5] = Trypanosoma cruzi growth suppression in host cells – NIH3T3 host cells, beta-gal luminescence, confirmation (AID 2044); format: functional, cell-based;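 also: intracellular parasites grown in NIH/3T3 mouse fibroblasts as host cells; luminescent beta-galactosidase reporter signal from transgenic T. cruzi replicating inside host cells; inhibitors lower the luminescence signal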
[6] = NIH3T3 cell viability loss – ATP luminescence, mouse fibroblasts, counter-screen, dose response (AID 2010); format: functional, cell-based;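 also: cells exposed to compound for about 90 hours before reading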
[7] = target: T3, Histone-lysine N-methyltransferase NSD2 (Homo sapiens, UniProt O96028); format: biochemical
T3 sequence (O96028 whole entry): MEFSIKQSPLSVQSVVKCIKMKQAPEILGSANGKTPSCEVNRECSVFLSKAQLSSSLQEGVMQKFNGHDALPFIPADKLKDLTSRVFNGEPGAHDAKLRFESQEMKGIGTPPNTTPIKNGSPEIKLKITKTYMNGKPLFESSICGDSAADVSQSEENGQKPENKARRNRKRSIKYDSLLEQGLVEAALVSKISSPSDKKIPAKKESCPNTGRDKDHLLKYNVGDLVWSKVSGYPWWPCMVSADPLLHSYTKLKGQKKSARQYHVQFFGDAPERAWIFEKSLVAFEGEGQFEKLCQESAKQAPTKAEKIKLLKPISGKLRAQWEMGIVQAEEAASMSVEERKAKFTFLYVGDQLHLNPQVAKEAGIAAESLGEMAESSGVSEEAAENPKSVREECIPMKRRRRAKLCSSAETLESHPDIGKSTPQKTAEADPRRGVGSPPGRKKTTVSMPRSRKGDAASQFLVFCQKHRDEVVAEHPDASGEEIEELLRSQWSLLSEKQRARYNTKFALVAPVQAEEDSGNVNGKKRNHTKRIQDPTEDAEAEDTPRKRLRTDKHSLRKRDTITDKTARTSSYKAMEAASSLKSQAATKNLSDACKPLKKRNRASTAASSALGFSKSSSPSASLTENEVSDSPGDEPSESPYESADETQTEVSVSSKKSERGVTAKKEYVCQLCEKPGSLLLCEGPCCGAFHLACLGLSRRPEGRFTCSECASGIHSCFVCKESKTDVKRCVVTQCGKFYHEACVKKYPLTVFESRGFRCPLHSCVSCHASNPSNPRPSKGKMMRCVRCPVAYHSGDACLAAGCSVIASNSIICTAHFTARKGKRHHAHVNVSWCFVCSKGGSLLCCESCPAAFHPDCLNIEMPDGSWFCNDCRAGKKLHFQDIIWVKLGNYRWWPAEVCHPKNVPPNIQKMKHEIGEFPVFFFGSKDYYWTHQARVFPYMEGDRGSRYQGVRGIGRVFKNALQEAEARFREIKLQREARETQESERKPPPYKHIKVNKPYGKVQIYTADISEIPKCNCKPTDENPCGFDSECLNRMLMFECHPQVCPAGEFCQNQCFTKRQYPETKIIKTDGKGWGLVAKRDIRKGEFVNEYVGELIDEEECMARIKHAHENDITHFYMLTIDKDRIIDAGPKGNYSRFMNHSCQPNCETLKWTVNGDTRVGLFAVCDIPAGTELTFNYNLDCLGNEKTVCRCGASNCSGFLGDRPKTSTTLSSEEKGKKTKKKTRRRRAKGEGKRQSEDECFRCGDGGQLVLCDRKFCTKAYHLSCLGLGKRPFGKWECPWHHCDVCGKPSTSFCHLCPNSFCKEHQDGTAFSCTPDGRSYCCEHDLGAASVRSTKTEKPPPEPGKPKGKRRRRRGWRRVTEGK

Cytochrome P450 2C9 = Cytochrome P450 2C9 (Homo sapiens, UniProt P11712)
Sequence of Cytochrome P450 2C9 (P11712 whole entry): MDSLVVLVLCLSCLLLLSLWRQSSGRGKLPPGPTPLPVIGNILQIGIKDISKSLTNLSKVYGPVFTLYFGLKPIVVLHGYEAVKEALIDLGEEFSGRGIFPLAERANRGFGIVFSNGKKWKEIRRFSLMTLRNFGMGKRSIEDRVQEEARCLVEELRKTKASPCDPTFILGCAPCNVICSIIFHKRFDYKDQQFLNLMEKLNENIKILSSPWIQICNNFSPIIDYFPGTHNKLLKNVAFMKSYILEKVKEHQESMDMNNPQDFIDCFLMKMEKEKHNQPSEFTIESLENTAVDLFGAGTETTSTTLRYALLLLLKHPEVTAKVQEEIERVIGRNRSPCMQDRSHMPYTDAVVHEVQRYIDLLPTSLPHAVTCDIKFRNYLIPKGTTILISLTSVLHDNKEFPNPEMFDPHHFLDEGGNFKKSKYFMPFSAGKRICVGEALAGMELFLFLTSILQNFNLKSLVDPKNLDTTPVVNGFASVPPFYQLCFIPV

Sequence of 26S proteasome non-ATPase regulatory subunit 14 (O00487 whole entry): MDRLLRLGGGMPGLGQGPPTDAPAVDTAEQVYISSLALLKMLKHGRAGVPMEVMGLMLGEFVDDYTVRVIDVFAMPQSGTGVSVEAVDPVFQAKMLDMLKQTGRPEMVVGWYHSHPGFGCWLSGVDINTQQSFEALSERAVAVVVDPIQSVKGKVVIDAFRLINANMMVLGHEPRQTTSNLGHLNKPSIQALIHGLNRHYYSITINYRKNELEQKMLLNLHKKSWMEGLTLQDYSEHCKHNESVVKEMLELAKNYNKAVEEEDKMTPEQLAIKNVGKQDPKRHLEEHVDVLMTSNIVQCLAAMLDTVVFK
Sequence of 72 kDa type IV collagenase (P08253 whole entry): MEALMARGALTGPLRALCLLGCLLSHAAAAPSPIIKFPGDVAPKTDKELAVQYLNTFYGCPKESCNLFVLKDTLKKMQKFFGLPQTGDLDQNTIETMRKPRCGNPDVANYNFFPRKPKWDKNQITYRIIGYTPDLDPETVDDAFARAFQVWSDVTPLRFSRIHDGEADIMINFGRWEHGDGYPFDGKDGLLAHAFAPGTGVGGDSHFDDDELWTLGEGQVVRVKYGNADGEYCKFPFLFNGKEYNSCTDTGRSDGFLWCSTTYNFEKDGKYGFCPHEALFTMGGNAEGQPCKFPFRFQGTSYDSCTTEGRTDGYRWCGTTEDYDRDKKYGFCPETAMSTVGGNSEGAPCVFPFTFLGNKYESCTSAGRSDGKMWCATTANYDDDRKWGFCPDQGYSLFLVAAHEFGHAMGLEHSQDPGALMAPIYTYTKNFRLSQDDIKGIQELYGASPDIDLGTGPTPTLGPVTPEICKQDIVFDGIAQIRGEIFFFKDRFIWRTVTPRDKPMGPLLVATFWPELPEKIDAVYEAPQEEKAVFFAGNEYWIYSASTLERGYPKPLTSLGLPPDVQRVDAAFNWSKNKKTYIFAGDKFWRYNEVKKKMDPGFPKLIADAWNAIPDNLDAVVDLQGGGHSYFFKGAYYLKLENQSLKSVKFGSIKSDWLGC

SMILES: CCOC(=O)CSc1nc(C(C)C)nc2sc(C)c(C)c12
IC50 [1]: 2.34 µM (not active)

SMILES: Cc1ccc(SCC(=O)c2c(C)nc3cc(C)ccn23)cc1
IC50 [1]: 6.79 µM (not active)

SMILES: COc1cccc(CN2CCNC(=O)C2CC(=O)NCCn2nc(C)cc2C)c1OC (centres undefined)
IC50 [2]: > 100 µM (active)

SMILES: CNCCCOc1cccc(Oc2ccccc2)c1
EC50 [5]: 1.29 µM (active)
EC50 [6]: > 30 µM (not active)
AC50 [7]: > 20 µM (inactive)

The remaining lines, values ahead:

IC50 (Aminopeptidase N): 23.2 µM (active)
IC50 [2]: > 100 µM (active)
SMILES: O=C(CN1CCC(NC(=O)c2cccc(F)c2)CC1)NCc1ccccc1F

IC50 [2]: > 100 µM (active)
SMILES: O=S(=O)(Nc1ccc2c(c1)nc1n2CCN(Cc2ccccc2)C1)c1ccc(Cl)cc1

IC50 [3]: 30.6 µM (active)
IC50 [4]: > 100 µM (inactive)
IC50 (Prothrombin): 24 µM (active)
SMILES: O=C(CSc1nc2ccccc2o1)Nc1nc2c(s1)CCCC2

IC50 [2]: > 100 µM (active)
AC50 (Cytochrome P450 2C9): 1.78 µM (inconclusive)
SMILES: Cc1ccc[n+](CC(=O)c2cc3ccccc3oc2=O)c1
